In US12304909B2, “Compounds and their use in therapy” (IMPERIAL COLLEGE INNOVATIONS LIMITED, priority 2018, dated 2025):

Tested on: MDA MB 231 cells
Assay: In vivo study in mice, MDA MB 231 tumour growth
Set-up: species or system Athymic Nude female mice
Conditions: 25 mg/kg twice a day by oral gavage, 10 days
Method: The effect of Example 1 on tumor growth rate in mice was also investigated.
5×10^6 MDA MB 231 cells (obtained from Professor Eric Aboagye, Hammersmith Hospital; cell type: triple negative breast cancer) were resuspended in PBS, and 50 μl of cells/PBS was mixed with 50 μl of Matrigel to provide a total volume of 100 μL containing 50% Matrigel. The suspension was injected into the right flank in 16 Athymic Nude female mice. Mice were five to six weeks old and obtained from Charles Rivers Laboratories. All of the experiments were carried out under London Home Office license authority and London Home Office Ethics Committee guidelines. When the tumour mass reached 50 mm3, the animals were randomized (8 per group) and treated for 10 days with PBS solution (control group) or 25 mg/kg of Example 1 suspended in PBS twice a day by oral gavage. Tumor growth rates were analyzed by caliper measurements every day after the start of the treatment period with Example 1 (“NMTi”) or the control (“PBS”). Tumor volume was calculated according to the formula: […]. Weight of the mice was also measured every day after the start of the treatment period with Example 1 (“NMTi”) or the control (“PBS”). Mice were euthanised when the tumor size exceeded 15 mm in diameter in any direction.

`Cc1c(CCOc2cc(Cl)ccc2-c2ccc3ncc(CCN)n3c2)c(C(=O)N(C)C)nn1C` [Example Compound 1, 4-(2-{2-[3-(2-aminoethyl)imidazo[1,2-a]pyridin-6-yl]-5-chlorophenoxy}ethyl)-N,N,1,5-tetramethyl-1H-pyrazole-3-carboxamide] was tested, and the “weight change in the mice” value was “No weight change” and the tumour growth rate (vs PBS control) was “reduced”.
